From patent publication US7205382B2, “Peptides, the production and use thereof for binding immunoglobulins” (Fresenius Medical Care Affina GmbH, priority 2000, dated 2007) come the findings set out here.

What all share (format): binding
What all share (design): key: No binding of immunoglobulin for the defined peptide variant, detection negative: 0; Binding of immunoglobulin for the defined peptide variant, detection positive: +

One assay deals with serum albumin. The assay is described as follows: Cellulose-immobilized 13-mer peptide variants incubated with serum albumin (negative control), anti-human IgG-AP detection. As to conditions: blocking buffer without addition, 3 h room temperature. The essentials:
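Membrane-bound peptides, spaced by two β-alanines, are probed with 1 μg/ml IgG-Fc or 1:10,000 serum for 3 h at room temperature; blocking buffer alone acts as control. Detection uses anti-human IgG-AP (1.2 μg/ml) and NBT/BCIP.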

The subject of assay [1] is immunoglobulins in human plasma. The assay can be described thus: Cellulose-immobilized 13-mer peptide variants incubated with human plasma, anti-human IgG-AP detection. The settings on record: human plasma as sample, diluted 1:10,000 in blocking buffer, 3 h room temperature. The essentials:
(§1)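 SPOT-type 13-mer peptides on cellulose with a (βA)(βA) spacer, blocked in 5% saccharose/4% BSA in T-TBS pH 8.0. Incubated 3 h at RT with human IgG-Fc (1 μg/ml) or human serum/plasma (1:10,000), or with blocking buffer alone as the albumin specificity control. Bound IgG detected with AP-anti-human IgG (1.2 μg/ml) and NBT/BCIP colorimetric development at pH 9.5.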

Another assay concerns human IgG-Fc. The assay is described as follows: Cellulose-immobilized 13-mer peptide variants incubated with human IgG-Fc, anti-human IgG-AP detection. As to conditions: IgG-Fc 1 μg/ml in blocking buffer, 3 h room temperature. In a few lines:
as §1

Bridge positions count the residues as written; N and C are the ends. Square brackets hold non-standard residues; d marks the D form. Ends that are not written are not given here. cellulose = not defined here; βAla = NCCC(=O)O

“09H: cellulose-bound 13-mer variant DCAWHLGEHVWCT-(βA)(βA) (DCAWHLGEHVWCT-{βAla-βAla-cellulose}; disulfide 2-12 (inferred); reading uncertain; also: printed as DCAWHLGEHVWCT-(βA)(βA))”: in the assay on serum albumin, the “Result for incubation with serum albumin (immunoglobulin binding detection)” value (shortened to “Result for incubation with serum albumin”) was 0. For the same substance, in assay [1], the “Result for incubation with human plasma (immunoglobulin binding detection)” value (“Result for incubation with human plasma” below) turned out to be 0. In the assay on human IgG-Fc, the “Result for incubation with human IgG-Fc (immunoglobulin binding detection)” value (“Result for incubation with human IgG-Fc” for short) was 0.
In the case of “06F: cellulose-bound 13-mer variant DCAWHFGELVWCT-(βA)(βA) (DCAWHFGELVWCT[βAla][βAla]; disulfide 2-12 (inferred); not fully specified (N-terminus); printed as DCAWHFGELVWCT-(βA)(βA); also: cellulose-bound)”, the “Result for incubation with serum albumin” value with serum albumin amounted to 0. Also, the “Result for incubation with human plasma” value in assay [1] stood at 0. Besides, in the assay with human IgG-Fc, the “Result for incubation with human IgG-Fc” value is recorded as 0.
In the case of “11V: cellulose-bound 13-mer variant DCAWHLGELVVCT-(βA)(βA)”, in the assay with serum albumin, the “Result for incubation with serum albumin” value is 0. In assay [1], the “Result for incubation with human plasma” value was found to be 0. The “Result for incubation with human IgG-Fc” value in the assay with human IgG-Fc is given as 0.
As for “07F: cellulose-bound 13-mer variant DCAWHLFELVWCT-(βA)(βA) (DCAWHLFELVWCT-{βAla-βAla-cellulose}; disulfide 2-12 (inferred); not fully specified (N-terminus); printed as DCAWHLFELVWCT-(βA)(βA); reading uncertain)”, the “Result for incubation with serum albumin” value with serum albumin worked out at 0. Besides, the “Result for incubation with human plasma” value in assay [1] came to 0. In the assay on human IgG-Fc, the “Result for incubation with human IgG-Fc” value stood at 0.
As to “07H: cellulose-bound 13-mer variant DCAWHLHELVWCT-(βA)(βA) (DCAWHLHELVWCT-{βAla-βAla-cellulose}; disulfide 2-12 (inferred); not fully specified (N-terminus); printed as DCAWHLHELVWCT-(βA)(βA); reading uncertain)”, the “Result for incubation with serum albumin” value in the assay with serum albumin is on record as 0. Moreover, the “Result for incubation with human plasma” value in assay [1] is listed as 0. Besides, the “Result for incubation with human IgG-Fc” value in the assay on human IgG-Fc was 0.
For the substance “11A: cellulose-bound 13-mer variant DCAWHLGELVACT-(βA)(βA) (DCAWHLGELVACT-{βAla-βAla-cellulose}; disulfide 2-12 (inferred); reading uncertain; also: printed as DCAWHLGELVACT-(βA)(βA))”, the “Result for incubation with serum albumin” value in the assay with serum albumin is given as 0. Also, the “Result for incubation with human plasma” value in assay [1] stood at 0. Further, in the assay with human IgG-Fc, the “Result for incubation with human IgG-Fc” value stood at 0.
For the substance “09D: cellulose-bound 13-mer variant DCAWHLGEDVWCT-(βA)(βA) (DCAWHLGEDVWCT-{βAla-βAla-cellulose}; disulfide 2-12 (inferred); reading uncertain; also: printed as DCAWHLGEDVWCT-(βA)(βA))”, the “Result for incubation with serum albumin” value with serum albumin is recorded as 0. Also, the “Result for incubation with human plasma” value in assay [1] is 0. The “Result for incubation with human IgG-Fc” value in the assay with human IgG-Fc stood at 0.
Take “05W: cellulose-bound 13-mer variant DCAWWLGELVWCT-(βA)(βA) (disulfide 2-12 (inferred); not fully specified (N-terminus, C-terminus); printed as DCAWWLGELVWCT-(βA)(βA); also: cellulose-bound)”: the “Result for incubation with serum albumin” value in the assay with serum albumin is 0. The “Result for incubation with human plasma” value in assay [1] stood at 0. Moreover, the “Result for incubation with human IgG-Fc” value in the assay with human IgG-Fc is given as 0.
As for “11I: cellulose-bound 13-mer variant DCAWHLGELVICT-(βA)(βA)”, in the assay on serum albumin, the “Result for incubation with serum albumin” value is on record as 0. For the same substance, in assay [1], the “Result for incubation with human plasma” value is 0. Besides, the “Result for incubation with human IgG-Fc” value in the assay on human IgG-Fc is 0.
As to “01F: cellulose-bound 13-mer variant FCAWHLGELVWCT-(βA)(βA) (FCAWHLGELVWCT-{βAla-βAla-cellulose}; disulfide 2-12 (inferred); reading uncertain; also: printed as FCAWHLGELVWCT-(βA)(βA))”, in the assay on serum albumin, the “Result for incubation with serum albumin” value is given as 0. Also, in assay [1], the “Result for incubation with human plasma” value stood at 0. Besides, in the assay with human IgG-Fc, the “Result for incubation with human IgG-Fc” value is 0.
Turning to “03P: cellulose-bound 13-mer variant DCPWHLGELVWCT-(βA)(βA) (DCPWHLGELVWCT-{βAla-βAla-cellulose}; disulfide 2-12 (inferred); reading uncertain; also: printed as DCPWHLGELVWCT-(βA)(βA))”, the “Result for incubation with serum albumin” value in the assay on serum albumin was 0. Further, the “Result for incubation with human plasma” value in assay [1] is reported as 0. Besides, the “Result for incubation with human IgG-Fc” value with human IgG-Fc is listed as 0.
Turning to “08Q: cellulose-bound 13-mer variant DCAWHLGQLVWCT-(βA)(βA) (DCAWHLGQLVWCT-{βAla-βAla-cellulose}; disulfide 2-12 (inferred); reading uncertain; also: printed as DCAWHLGQLVWCT-(βA)(βA))”, the “Result for incubation with serum albumin” value in the assay with serum albumin came to 0. Moreover, the “Result for incubation with human plasma” value in assay [1] is listed as “+”. Further, the “Result for incubation with human IgG-Fc” value in the assay with human IgG-Fc is on record as “+”.
Consider “07V: cellulose-bound 13-mer variant DCAWHLVELVWCT-(βA)(βA) (DCAWHLVELVWCT-{βAla-βAla-cellulose}; disulfide 2-12 (inferred); not fully specified (N-terminus); printed as DCAWHLVELVWCT-(βA)(βA); reading uncertain)”, for which the “Result for incubation with serum albumin” value in the assay on serum albumin came to 0. For the same substance, in assay [1], the “Result for incubation with human plasma” value was determined as 0. The “Result for incubation with human IgG-Fc” value in the assay with human IgG-Fc stood at 0.
As to “06K: cellulose-bound 13-mer variant DCAWHKGELVWCT-(βA)(βA) (DCAWHKGELVWCT-{βAla-βAla-cellulose}; disulfide 2-12 (inferred); not fully specified (N-terminus); printed as DCAWHKGELVWCT-(βA)(βA); reading uncertain)”, the “Result for incubation with serum albumin” value in the assay on serum albumin is 0. Also, in assay [1], the “Result for incubation with human plasma” value is “+”. Also, in the assay on human IgG-Fc, the “Result for incubation with human IgG-Fc” value is given as “+”.
Turning to “01D: starting 13-mer DCAWHLGELVWCT-(βA)(βA), R1=amino, cellulose-bound”, the “Result for incubation with serum albumin” value in the assay with serum albumin came to 0. Also, the “Result for incubation with human plasma” value in assay [1] is “+”. In addition, the “Result for incubation with human IgG-Fc” value in the assay on human IgG-Fc is “+”.
Take “05N: cellulose-bound 13-mer variant DCAWNLGELVWCT-(βA)(βA) (disulfide 2-12 (inferred); not fully specified (N-terminus, C-terminus); printed as DCAWNLGELVWCT-(βA)(βA); also: cellulose-bound)”: the “Result for incubation with serum albumin” value with serum albumin was 0. The “Result for incubation with human plasma” value in assay [1] came to 0. Moreover, in the assay with human IgG-Fc, the “Result for incubation with human IgG-Fc” value came out at 0.
For “03V: cellulose-bound 13-mer variant DCVWHLGELVWCT-(βA)(βA) (DCVWHLGELVWCT-{βAla-βAla-cellulose}; disulfide 2-12 (inferred); reading uncertain; also: printed as DCVWHLGELVWCT-(βA)(βA))”, the “Result for incubation with serum albumin” value with serum albumin stood at 0. In assay [1], the “Result for incubation with human plasma” value is recorded as 0. In the assay on human IgG-Fc, the “Result for incubation with human IgG-Fc” value turned out to be 0.
Take “06P: cellulose-bound 13-mer variant DCAWHPGELVWCT-(βA)(βA) (DCAWHPGELVWCT-{βAla-βAla-cellulose}; disulfide 2-12 (inferred); not fully specified (N-terminus); printed as DCAWHPGELVWCT-(βA)(βA); reading uncertain)”: the “Result for incubation with serum albumin” value in the assay on serum albumin is given as 0. Further, in assay [1], the “Result for incubation with human plasma” value amounted to 0. Moreover, the “Result for incubation with human IgG-Fc” value with human IgG-Fc was 0.
For the substance “03D: cellulose-bound 13-mer variant DCDWHLGELVWCT-(βA)(βA) (DCDWHLGELVWCT-{βAla-βAla-cellulose}; disulfide 2-12 (inferred); reading uncertain; also: printed as DCDWHLGELVWCT-(βA)(βA))”, in the assay with serum albumin, the “Result for incubation with serum albumin” value stood at 0. The “Result for incubation with human plasma” value in assay [1] stood at 0. For the same substance, the “Result for incubation with human IgG-Fc” value in the assay on human IgG-Fc turned out to be 0.
In the case of “08R: cellulose-bound 13-mer variant DCAWHLGRLVWCT-(βA)(βA) (DCAWHLGRLVWCT-{βAla-βAla-cellulose}; disulfide 2-12 (inferred); reading uncertain; also: printed as DCAWHLGRLVWCT-(βA)(βA))”, in the assay with serum albumin, the “Result for incubation with serum albumin” value came out at 0. Further, the “Result for incubation with human plasma” value in assay [1] was “+”. In the assay on human IgG-Fc, the “Result for incubation with human IgG-Fc” value is “+”.
